Data on nine compounds can be found in patent publication US5162320A, “1,4-bis(alkylamino)-2,3-diaza-anthracene-9,10-diones” (Boehringer Biochemia Robin S.p.A., priority 1989, dated 1992).

In series [1] the test system is human melanoma xenographt. As to the kind of experiment: M.T.T. assay in vitro, human melanoma. It is filed as cell-based. The protocol: (§1) The antitumor activity of compounds of the present invention was evaluated by "in vitro" M.T.T. assay (T. Mosmann, J. Immunol. Meth. 65 : 55-63, 1983) on human tumor cell lines. M.T.T. assay was chosen according to N.C.I. screening program for new anticancer drugs (Ad hoc review committee proceedings for N.C.I. "in vitro"--"in vivo" Disease oriented Screening project. N.I.H., Bethesda, Md. Dec.8-9, 1986).

For series [2], the system named is human cervix epithelioid carcinoma cell line. Briefly: M.T.T. assay in vitro, human cervix epithelioid carcinoma. The class given is cell-based. The protocol:
as §1
Against the same human cervix epithelioid carcinoma cell line the compounds (1) and (2) show ID50 of 1×10^-9 M and 2×10^-10 M, respectively.

In series [3] the test system is human colon adenocarcinoma. As to the kind of experiment: M.T.T. assay in vitro, human colon adenocarcinoma. The class given is cell-based. The settings on record: human colon adenocarcinoma xenographt, read-out: ID50 (the source's name). The procedure: as §1
For series [4] the following is noted: intraperitoneal, non-tumor bearing animals; cited from earlier work.
The conditions of series [5]: human, in vivo; cited from earlier work.
The mark [6] stands for this setting: human melanoma xenographt, M.T.T. assay, read-out: ID50 (the source's name).
Where [7] appears, read: human cervix epithelioid carcinoma, in vitro, read-out: ID50 (the source's name).
[8] abbreviates: human cervix epithelioid carcinoma.

Like-named read-outs stand apart in the source and are kept apart here.

Take `OCCCNc1nnc(NCCCO)c2cc3ccccc3cc12` [1,4-bis[N-(3-hydroxypropyl)amino]-2,3-diaza-anthracene]: in series [1] (setting [6]), the IC50 stood at 500000 nM.
As to `CN(C)CCNc1nnc(NCCN(C)C)c2c1C(=O)c1ccccc1C2=O` [Compound 1, 1,4-bis[N-(2-dimethylaminoethyl)amino]-2,3-diaza-anthracene-9,10-dione], the IC50 in series [2] (setting [7]) was found to be 1 nM; in series [3], 10 nM; in series [1] (setting [6]), 1 nM.
As to `CN(C)CCNc1nnc(N)c2c1C(=O)c1ccccc1C2=O` [Compound 2, 1-[N-(2-dimethylaminoethyl)amino]-4-amino-2,3-diaza-anthracene9,10-dione], the IC50 in series [2] (setting [7]) was determined as 0.2 nM; in series [3] it was 1 nM; in series [1] (setting [6]), 0.1 nM.
Regarding `O=C1c2ccccc2C(=O)c2c(NCCCO)nnc(NCCCO)c21` [Compound 3, 1,4-bis[N-(3-hydroxypropyl)amino]-2,3-diaza-anthracene-9,10-dione], the IC50 in series [1] (setting [6]) came to 2 nM.
Still for that read-out and setting: with `Nc1nnc(NCCCO)c2c1C(=O)c1ccccc1C2=O` [Compound 4, 1-[N-(3-hydroxypropyl)amino]-4-amino-2,3-diaza-anthracene-9,10-dione] the figure was 1 nM.
Take `Nc1nnc(NCCNCCO)c2c1C(=O)c1ccccc1C2=O` [Compound 5, 1-[N-(2-(2-hydroxyethylamino)ethyl)amino]-4-amino-2,3-diaza-anthracene-9,10-dione]: in series [2] (setting [8]), the “activity compared with ametantrone” value was “definitely more active than ametantrone” and the “activity compared with mitoxantrone” value is listed as “as active as mitoxantrone”. Moreover, the IC50 in series [2] (setting [7]) was determined as 3 nM.
For the compound `O=C1c2ccccc2C(=O)c2c(NCCNCCO)ccc(NCCNCCO)c21` [ametantrone, 1,4-bis[(2-(2-hydroxyethylamino)ethyl)amino]anthracene-9,10-dione], the IC50 in series [2] (Homo sapiens, read-out: ID50) was 50000 nM; in series [1] (Homo sapiens, read-out: ID50), 20000 nM. The delayed lethality result in series [4] is listed as “not observed”. Moreover, the cardiotoxicity entry in series [5] is “some cardiotoxicity”.
With `COc1cccc2c1C(=O)c1c(O)c3c(c(O)c1C2=O)C[C@@](O)(C(=O)CO)C[C@@H]3O[C@H]1C[C@H](N)[C@H](O)[C@H](C)O1` [doxorubicin], in series [5], the cardiotoxicity entry is recorded as “severe dose-related cardiotoxicity”; the toxic side effects result was “nausea, vomiting and alopecia”.
For the compound `O=C1c2c(O)ccc(O)c2C(=O)c2c(NCCNCCO)ccc(NCCNCCO)c21` [mitoxantrone, 5,8-dihydroxy-1,4-bis[(2-(2-hydroxyethylamino)ethyl)amino]anthracene-9,10-dione], the IC50 in series [2] (setting [7]) turned out to be 5 nM. Further, the IC50 in series [3] turned out to be 100 nM. Moreover, the IC50 in series [1] (setting [6]) worked out at 1 nM. Also, the delayed lethality result in series [4] was “a delayed lethality”. Also, in series [5], the cardiotoxicity result is listed as “some clinical cardiotoxicity”; the major hematological toxicities result was “leukopenia, neutropenia and bone marrow aplasia”; the toxic side effects entry is reported as “by far lower than those resulting from doxorubicin”.
